Patent US7935702B2, “Substituted biaryl quinolin-4-ylamine analogues” (Neurogen Corporation, priority 2004, dated 2011)
Where two headings read alike, the source gives them in different places.

Target: T1, human capsaicin receptor (Homo sapiens, UniProt Q8NER1)
T1 construct: expressed in transfected cells
Assay: Calcium mobilization assay, determination of antagonist activity (Example 6)
Type: cell-based
Design: IC50 determined as described in Example 6: scale not given here
Description: A cDNA encoding full length human capsaicin receptor (SEQ ID NO:1, 2 or 3 of U.S. Pat. No. 6,482,611) is subcloned in the plasmid pBK-CMV (Stratagene, La Jolla, Calif.) for recombinant expression in mammalian cells.
Human embryonic kidney (HEK293) cells are transfected with the pBK-CMV expression construct encoding the full length human capsaicin receptor using standard methods. The transfected cells are selected for two weeks in media containing G418 (400 μg/ml) to obtain a pool of stably transfected cells. Independent clones are isolated from this pool by limiting dilution to obtain clonal stable cell lines for use in subsequent experiments.
This Example illustrates representative calcium mobilization assays for use in evaluating test compounds for agonist and antagonist activity.
Cells transfected with expression plasmids (as described in Example 4) and thereby expressing human capsaicin receptor are seeded and grown to 70-90% confluency in FALCON black-walled, clear-bottomed 96-well plates (#3904, BECTON-DICKINSON, Franklin Lakes, N.J.). The culture medium is emptied from the 96 well plates and FLUO-3 AM calcium sensitive dye (Molecular Probes, Eugene, Oreg.) is added to each well (dye solution: 1 mg FLUO-3 AM, 440 μL DMSO and 440 μl 20% pluronic acid in DMSO, diluted 1:250 in Krebs-Ringer HEPES (KRH) buffer (25 mM HEPES, 5 mM KCl, 0.96 mM NaH2PO4, 1 mM MgSO4, 2 mM CaCl2, 5 mM glucose, 1 mM probenecid, pH 7.4), 50 μl diluted solution per well). Plates are covered with aluminum foil and incubated at 37° C. for 1-2 hours in an environment containing 5% CO2. After the incubation, the dye is emptied from the plates, and the cells are washed once with KRH buffer, and resuspended in KRH buffer.
To measure the ability of a test compound to agonize or antagonize a calcium mobilization response in cells expressing capsaicin receptors to capsaicin or other vanilloid agonist, the EC50 of the agonist capsaicin is first determined. An additional 20 μl of KRH buffer and 1 μl DMSO is added to each well of cells, prepared as described above. 100 μl capsaicin in KRH buffer is automatically transferred by the FLIPR instrument to each well. Capsaicin-induced calcium mobilization is monitored using either FLUOROSKAN ASCENT (Labsystems; Franklin, Mass.) or FLIPR (fluorometric imaging plate reader system; Molecular Devices, Sunnyvale, Calif.) instruments. Data obtained between 30 and 60 seconds after agonist application are used to generate an 8-point concentration response curve, with final capsaicin concentrations of 1 nM to 3 μM. KALEIDAGRAPH software (Synergy Software, Reading, Pa.) is used to fit the data to the equation: y=a*(1/(1+(b/x)^c)) to determine the 50% excitatory concentration (EC50) for the response. In this equation, y is the maximum fluorescence signal, x is the concentration of the agonist or antagonist (in this case, capsaicin), a is the Emax, b corresponds to the EC50 value and c is the Hill coefficient. Determination of Agonist Activity
Test compounds are dissolved in DMSO, diluted in 20 μl KRH buffer so that the final concentration of test compounds in the assay well is between 1 μM and 5 μM, and added to cells prepared as described above. The 96 well plates containing prepared cells and test compounds are incubated in the dark, at room temperature for 0.5 to 6 hours. It is important that the incubation not continue beyond 6 hours. Just prior to determining the fluorescence response, 100 μl capsaicin in KRH buffer at twice the EC50 concentration determined as described above is automatically added by the FLIPR instrument to each well of the 96 well plate for a final sample volume of 200 μl and a final capsaicin concentration equal to the EC50. The final concentration of test compounds in the assay wells is between 1 μM and 5 μM. […]

[1] = Table I, IC50 determined as described in Example 6, read-out: IC50
[2] = cells expressing human capsaicin receptor, capsaicin at EC50, read-out: IC50 determined as described in Example 6

T1 sequence (Q8NER1 whole entry): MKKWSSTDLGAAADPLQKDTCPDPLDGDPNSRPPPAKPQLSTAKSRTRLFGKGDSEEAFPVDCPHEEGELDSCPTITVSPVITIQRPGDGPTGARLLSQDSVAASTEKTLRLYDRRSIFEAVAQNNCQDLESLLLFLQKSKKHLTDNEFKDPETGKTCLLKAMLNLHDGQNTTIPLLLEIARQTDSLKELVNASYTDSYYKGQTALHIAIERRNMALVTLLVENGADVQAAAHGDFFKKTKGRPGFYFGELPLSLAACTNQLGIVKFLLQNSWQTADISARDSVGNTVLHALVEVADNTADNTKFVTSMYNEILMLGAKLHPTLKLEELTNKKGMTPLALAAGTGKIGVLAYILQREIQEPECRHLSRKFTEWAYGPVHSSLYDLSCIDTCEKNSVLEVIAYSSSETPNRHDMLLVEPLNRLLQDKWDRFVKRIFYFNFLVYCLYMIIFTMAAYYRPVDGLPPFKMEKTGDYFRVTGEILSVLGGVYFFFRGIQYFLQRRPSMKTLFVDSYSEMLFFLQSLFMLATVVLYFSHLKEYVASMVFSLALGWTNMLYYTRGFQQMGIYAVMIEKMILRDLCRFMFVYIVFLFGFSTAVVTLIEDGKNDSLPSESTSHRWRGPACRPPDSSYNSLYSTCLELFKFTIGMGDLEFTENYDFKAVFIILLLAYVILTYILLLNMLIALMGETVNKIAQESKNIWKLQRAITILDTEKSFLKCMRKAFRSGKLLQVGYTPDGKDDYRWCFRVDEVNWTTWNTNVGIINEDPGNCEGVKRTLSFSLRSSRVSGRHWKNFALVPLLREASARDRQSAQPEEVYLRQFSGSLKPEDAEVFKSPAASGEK

| IC50 [1] [µM] | SMILES | further results |
| --- | --- | --- |
| < 1 | CC(C)N(CCCO)c1cc(C(F)(F)F)c(-c2cnc3c(Nc4ccc(C(F)(F)F)cn4)ccnc3n2)nn1 [compound 178, 3-{isopropyl[5-(trifluoro-methyl)-6-(8-{[5-(trifluoro-methyl)pyridin-2-yl]amino}-pyrido[2,3-b]pyrazin-3-yl)pyridazin-3-yl]amino}propan-1-ol] | – |
| < 1 | CS(=O)(=O)c1ccc(-c2cnc3c(Nc4ccc(C(F)(F)F)cn4)ccnc3n2)c(C(F)(F)F)c1 [compound 41, 3-[4-(methylsulfonyl)-2-(trifluoromethyl)phenyl]-N-[5-(trifluoromethyl)pyridin-2-yl]pyrido[2,3-b]pyrazin-8-amine] | – |
| < 1 | OC1CN(c2cc(C(F)(F)F)c(-c3cnc4c(Nc5ccc(C(F)(F)F)cn5)ccnc4n3)nn2)C1 [compound 179, 1-[5-(trifluoromethyl)-6-(8-{[5-(trifluoromethyl)pyridin-2-yl]amino}pyrido[2,3-b]pyrazin-3-yl)pyridazin-3-yl]azetidin-3-ol] | – |
| < 1 | CC(=O)c1ccc(C(F)(F)F)c(-c2ccc3c(Nc4ccc(C(F)(F)F)cn4)ccnc3n2)n1 [compound 29, 1-{5-Trifluoromethyl-6-[5-(5-trifluoromethyl-pyridin-2-ylamino)-[1,8]naphthyridin-2-yl]-pyridin-2-yl}-ethanone] | – |
| – | FC(F)(F)c1ccc(Nc2ccnc3nc(-c4nnc(N5CCOCC5)cc4C(F)(F)F)cnc23)nc1 [Compound 19] | IC50 [2]: < 1 µM |
| < 1 | CCCN(CCC)C1CCN(c2cc(C(F)(F)F)c(-c3cnc4c(Nc5ccc(C(F)(F)F)cn5)ccnc4n3)nn2)CC1 [compound 81, 3-{6-[4-(dipropylamino)-piperidin-1-yl]-4-(trifluoro-methyl)pyridazin-3-yl}-N-[5-(trifluoromethyl)pyridin-2-yl]pyrido[2,3-b]pyrazin-8-amine] | – |
| < 1 | CCCN(CC1CC1)c1cc(C(F)(F)F)c(-c2cnc3c(Nc4ccc(C(F)(F)F)cn4)ccnc3n2)nn1 [compound 153, 3-{6-[(cyclopropylmethyl)-(propyl)amino]-4-(trifluoro-methyl)pyridazin-3-yl}-N-[5-(trifluoromethyl)pyridin-2-yl]pyrido[2,3-b]pyrazin-8-amine] | – |
| < 1 | C=CCN(C)c1cc(C(F)(F)F)c(-c2cnc3c(Nc4ccc(C(F)(F)F)cn4)ccnc3n2)nn1 [compound 141, 3-{6-[allyl(methyl)amino]-4-(trifluoromethyl)pyridazin-3-yl}-N-[5-(trifluoromethyl)-pyridin-2-yl]pyrido[2,3-b]pyrazin-8-amine] | – |
| – | N#Cc1cnc(-c2cnc3c(Nc4ccc(C(F)(F)F)cn4)ccnc3n2)c(C(F)(F)F)c1 [Compound 11, 5-(Trifluoromethyl)-6-(8-(5-(trifluoromethyl)pyridin-2-ylamino)pyrido[2,3-b]pyrazin-3-yl)nicotinonitrile] | IC50 determined as described in Example 6 (cells expressing human capsaicin receptor, capsaicin at EC50): less |
| < 1 | CC(C)N1CCN(c2cc(C(F)(F)F)c(-c3cnc4c(Nc5ccc(C(F)(F)F)cn5)ccnc4n3)nn2)CC1 [compound 75, 3-[6-(4-isopropylpiperazin-1-yl)-4-(trifluoromethyl)-pyridazin-3-yl]-N-[5-(trifluoromethyl)pyridin-2-yl]pyrido[2,3-b]pyrazin-8-amine] | – |
| – | CCOc1cc(C(F)(F)F)c(-c2cnc3c(Nc4ccc(C(F)(F)F)cn4)ccnc3n2)nn1 [Compound 16] | IC50 [2]: < 1 µM |
| < 1 | CCOc1nc(Nc2ccnc3nc(-c4ccc(C(=O)O)cc4C(F)(F)F)cnc23)ccc1C(F)(F)F [compound 44, 4-(8-{[6-ethoxy-5-(trifluoromethyl)pyridin-2-yl]amino}pyrido[2,3-b]pyrazin-3-yl)-3-(trifluoromethyl)benzoic acid] | – |
| – | NC(=O)c1cnc(-c2cnc3c(Nc4cnc(C(F)(F)F)cn4)ccnc3n2)c(C(F)(F)F)c1 [Compound 15, 5-(Trifluoromethyl)-6-(8-(5-(trifluoromethyl)pyrazin-2-ylamino)pyrido[2,3-b]pyrazin-3-yl)nicotinamide] | IC50 [2]: < 1 µM |
| < 1 | CCOc1nc(Nc2ccnc3nc(-c4ccc(C(N)=O)cc4C(F)(F)F)cnc23)ccc1C(F)(F)F [compound 43, 4-(8-{[6-ethoxy-5-(trifluoromethyl)pyridin-2-yl]amino}pyrido[2,3-b]pyrazin-3-yl)-3-(trifluoromethyl)benzamide] | – |
| < 1 | CCN(C)CCN(CC)c1cc(C(F)(F)F)c(-c2cnc3c(Nc4ccc(C(F)(F)F)cn4)ccnc3n2)nn1 [compound 91, N,N′-diethyl-N-methyl-N′-[5-(trifluoromethyl)-6-(8-{[5-(trifluoromethyl)pyridin-2-yl]amino}pyrido[2,3-b]pyrazin-3-yl)pyridazin-3-yl]ethane-1,2-diamine] | – |
| < 1 | N#Cc1ccc(-c2cnc3c(Nc4ccc(C(F)(F)F)cn4)ccnc3n2)c(C(F)(F)F)c1 [compound 36, 3-(trifluoromethyl)-4-(8-{[5-(trifluoromethyl)pyridin-2-yl]amino}pyrido[2,3-b]pyrazin-3-yl)benzonitrile] | – |
| < 1 | CCCCN(CC)c1cc(C(F)(F)F)c(-c2cnc3c(Nc4ccc(C(F)(F)F)cn4)ccnc3n2)nn1 [compound 152, 3-{6-[butyl(ethyl)amino]-4-(trifluoromethyl)pyridazin-3-yl}-N-[5-(trifluoromethyl)-pyridin-2-yl]pyrido[2,3-b]pyrazin-8-amine] | – |
| < 1 | C=CCN(CC=C)c1cc(C(F)(F)F)c(-c2cnc3c(Nc4ccc(C(F)(F)F)cn4)ccnc3n2)nn1 [compound 150, 3-[6-(diallylamino)-4-(trifluoromethyl)pyridazin-3-yl]-N-[5-(trifluoromethyl)-pyridin-2-yl]pyrido[2,3-b]pyrazin-8-amine] | – |
| – | CCOc1nc(Nc2ccnc3nc(-c4ncc(C(N)=O)cc4C(F)(F)F)cnc23)ccc1C(F)(F)F [Compound 9, 6-(8-(6-Ethoxy-5-(trifluoromethyl)pyridin-2-ylamino)pyrido[2,3-b]pyrazin-3-yl)-5-(trifluoromethyl)nicotinamide] | IC50 [2]: < 1 µM |
| < 1 | CCN(CC)CCCCNc1cc(C(F)(F)F)c(-c2cnc3c(Nc4ccc(C(F)(F)F)cn4)ccnc3n2)nn1 [compound 69, N,N-diethyl-N′-[5-(trifluoromethyl)-6-(8-{[5-(trifluoromethyl)pyridin-2-yl]amino}pyrido[2,3-b]pyrazin-3-yl)pyridazin-3-yl]butane-1,4-diamine] | – |
| < 1 | Cc1ccc(C(F)(F)F)c(-c2ccc3c(Nc4ccc(C(F)(F)F)cn4)ccnc3n2)n1 [compound 28, [7-(6-Methyl-3-trifluoromethyl-pyridin-2-yl)-[1,8]naphthyridin-4-yl]-(5-trifluoromethyl-pyridin-2-yl)-amine] | – |
| < 1 | FC(F)(F)c1ccc(Nc2ccnc3nc(-c4ncc(Br)cc4C(F)(F)F)cnc23)nc1 [compound 31, [3-(5-Bromo-3-trifluoromethyl-pyridin-2-yl)-pyrido[2,3-b]pyrazin-8-yl]-(5-trifluoromethyl-pyridin-2-yl)-amine] | – |
| – | Nc1cnc(-c2ccc3c(Nc4ccc(C(F)(F)F)cn4)ccnc3n2)c(C(F)(F)F)c1 [Compound 3, 7-(5-Amino-3-(trifluoromethyl)pyridin-2-yl)-N-(5-(trifluoromethyl)pyridin-2-yl)-1,8-naphthyridin-4-amine] | IC50 [2]: < 1 µM |
| < 1 | O[C@@H]1CCN(c2cc(C(F)(F)F)c(-c3cnc4c(Nc5ccc(C(F)(F)F)cn5)ccnc4n3)nn2)C1 [compound 170, (R)-1-[5-(trifluoromethyl)-6-(8-{[5-(trifluoromethyl)-pyridin-2-yl]amino}-pyrido[2,3-b]pyrazin-3-yl)-pyridazin-3-yl]pyrrolidin-3-ol] | – |
